Experimental data from ChEMBL document CHEMBL6127077, “Discovery and biological evaluation of 6-aryl-4-(3,4,5-trimethoxyphenyl)quinoline derivatives with promising antitumor activities as novel colchicine-binding site inhibitors” (Eur J Med Chem, 2024).
One block for each compound: values may come before it. Calls of active or inactive are those of the source. The calls are words filed in the database; no cut-off is given here.

Tests used:
[1] = biological target: T1, Tubulin (Homo sapiens) (UniProt P68371+Q9H4B7+P0DPH7+P68366+Q13509+Q71U36+P04350+Q3ZCM7+P07437+P68363+Q9BQE3+Q6PEY2+Q13885+Q9BVA1+Q9BUF5); test: Inhibition of tubulin polymerization (unknown origin) at 5 uM by infinite F500 microplate reader analysis; assay type: protein-complex assay
[2] = tested on: SGC-7901; test: Antiproliferative activity against human SGC-7901 cells assessed as inhibition of cell growth incubated for 72 hrs by MTT assay; assay type: functional, cell-based; conditions: SGC-7901, 72 h
[3] = tested on: MCF7; test: cells; conditions: Homo sapiens, MCF7, 72 h
Description: Antiproliferative activity against human MCF7 cells assessed as inhibition of cell growth incubated for 72 hrs by MTT assay

[4] = tested on: Huh-7; test: cells; conditions: Homo sapiens, Huh-7, 72 h
Description: Antiproliferative activity against human Huh-7 cells assessed as inhibition of cell growth incubated for 72 hrs by MTT assay

[5] = Cytotoxicity against human HUVEC cells incubated for 72 hrs by MTT assay; assay type: toxicity, cell-based
[6] = Antiproliferative activity against human MCF7/ADM cells assessed as inhibition of cell growth incubated for 72 hrs by MTT assay; assay type: functional, cell-based
[7] = biological target: T1, Tubulin (Homo sapiens); test: Disruption of microtubule network in human Huh-7 cells assessed as shortened microtubule wrap around the nucleus incubated for 24 hrs by DAPI staining based microscopic analysis; assay type: cell-based; conditions: dose 30-60 nM
[8] = tested on: Huh-7; test: Induction of cell cycle arrest in human Huh-7 cells assessed as accumulation of cells at G0/G1 phase at 120 nM incubated for 30 to 60 mins by RNase/PI staining based flow cytometry analysis (reference value: 55.08%); assay type: functional; conditions: time 30-60 min
[9] = tested on: Huh-7; test: Induction of apoptosis in human Huh-7 cells assessed as early apoptotic cells at 120 nM incubated for 48 hrs by Annexin-V/PI staining based flow cytometry analysis (reference value: 0.56%); assay type: functional
[10] = tested on: Huh-7; test: Induction of apoptosis in human Huh-7 cells assessed as late apoptotic cells at 120 nM incubated for 48 hrs by Annexin-V/PI staining based flow cytometry analysis (reference value: 4.06%); assay type: functional
[11] = biological target: T1, Tubulin (Homo sapiens); test: Inhibition of tubulin polymerization (unknown origin) by infinite F500 microplate reader analysis; assay type: protein-complex assay; conditions: dose 3-5 µM
[12] = Toxicity in male BALB/c mouse assessed as body weight loss at 15 mg/kg, ip administered every 2 days for 2 weeks; assay type: organism-based; conditions: in vivo, 336 h
[13] = tested on: Huh-7; test: Induction of apoptosis in human Huh-7 cells assessed as early apoptotic cells at 90 nM incubated for 48 hrs by Annexin-V/PI staining based flow cytometry analysis (reference value: 0.56%); assay type: functional
[14] = tested on: Huh-7; test: Induction of apoptosis in human Huh-7 cells assessed as viable cells at 90 nM incubated for 48 hrs by Annexin-V/PI staining based flow cytometry analysis (reference value: 94.8%); assay type: functional; conditions: read-out: Activity
[15] = tested on: Huh-7; test: Induction of apoptosis in human Huh-7 cells assessed as late apoptotic cells at 90 nM incubated for 48 hrs by Annexin-V/PI staining based flow cytometry analysis (reference value: 4.06%); assay type: functional
[16] = tested on: Huh-7; test: Induction of cell cycle arrest in human Huh-7 cells assessed as accumulation of cells at S-phase at 60 nM incubated for 30 to 60 mins by RNase/PI staining based flow cytometry analysis (reference value: 36.54%); assay type: functional; conditions: time 30-60 min
[17] = tested on: Huh-7; test: Induction of apoptosis in human Huh-7 cells assessed as necrotic cells at 90 nM incubated for 48 hrs by Annexin-V/PI staining based flow cytometry analysis (reference value: 0.60%); assay type: functional
[18] = tested on: Huh-7; test: Induction of apoptosis in human Huh-7 cells assessed as viable cells at 60 nM incubated for 48 hrs by Annexin-V/PI staining based flow cytometry analysis (reference value: 94.8%); assay type: functional; conditions: read-out: Activity
[19] = tested on: Huh-7; test: Induction of apoptosis in human Huh-7 cells assessed as necrotic cells at 60 nM incubated for 48 hrs by Annexin-V/PI staining based flow cytometry analysis (reference value: 0.60%); assay type: functional
[20] = tested on: Huh-7; test: Antitumor activity against human Huh-7 cells xenografted in male BALB/c mouse at 15 mg/kg, ip administered every 2 days for 2 weeks; assay type: functional, organism-based
[21] = tested on: Huh-7; test: Induction of cell cycle arrest in human Huh-7 cells assessed as accumulation of cells at S-phase at 120 nM incubated for 30 to 60 mins by RNase/PI staining based flow cytometry analysis (reference value: 36.54%); assay type: functional; conditions: time 30-60 min
[22] = tested on: Huh-7; test: Induction of cell cycle arrest in human Huh-7 cells assessed as accumulation of cells at G0/G1 phase at 90 nM incubated for 30 to 60 mins by RNase/PI staining based flow cytometry analysis (reference value: 55.08%); assay type: functional; conditions: time 30-60 min
[23] = tested on: Huh-7; test: Induction of cell cycle arrest in human Huh-7 cells assessed as accumulation of cells at G2M phase at 120 nM incubated for 30 to 60 mins by RNase/PI staining based flow cytometry analysis (reference value: 8.38%); assay type: functional; conditions: time 30-60 min
[24] = Toxicity in male BALB/c mouse assessed as liver damage at 15 mg/kg, ip administered every 2 days for 2 weeks by H and E staining based analysis; assay type: organism-based; conditions: in vivo, 336 h
[25] = tested on: Huh-7; test: Induction of cell cycle arrest in human Huh-7 cells assessed as accumulation of cells at G0/G1 phase at 60 nM incubated for 30 to 60 mins by RNase/PI staining based flow cytometry analysis (reference value: 55.08%); assay type: functional; conditions: time 30-60 min
[26] = tested on: Huh-7; test: Induction of apoptosis in human Huh-7 cells assessed as viable cells at 120 nM incubated for 48 hrs by Annexin-V/PI staining based flow cytometry analysis (reference value: 94.8%); assay type: functional; conditions: read-out: Activity
[27] = tested on: Huh-7; test: Induction of apoptosis in human Huh-7 cells assessed as necrotic cells at 120 nM incubated for 48 hrs by Annexin-V/PI staining based flow cytometry analysis (reference value: 0.60%); assay type: functional
[28] = tested on: Huh-7; test: Induction of cell cycle arrest in human Huh-7 cells assessed as accumulation of cells at G2M phase at 90 nM incubated for 30 to 60 mins by RNase/PI staining based flow cytometry analysis (reference value: 8.38%); assay type: functional; conditions: time 30-60 min
[29] = biological target: T1, Tubulin (Homo sapiens); test: Binding affinity to Tubulin (unknown origin) colchicine binding site assessed as reduction in colchicine-tubulin complex formation by Fluorescence based analysis; assay type: protein-complex assay; conditions: dose 2-6 µM
[30] = biological target: T1, Tubulin (Homo sapiens); test: Inhibition of tubulin polymerization (unknown origin) at 3 to 5 uM by infinite F500 microplate reader analysis; assay type: protein-complex assay; conditions: dose 3-5 µM
[31] = tested on: Huh-7; test: Induction of cell cycle arrest in human Huh-7 cells assessed as accumulation of cells at S-phase at 90 nM incubated for 30 to 60 mins by RNase/PI staining based flow cytometry analysis (reference value: 36.54%); assay type: functional; conditions: time 30-60 min
[32] = tested on: Huh-7; test: Induction of apoptosis in human Huh-7 cells assessed as late apoptotic cells at 60 nM incubated for 48 hrs by Annexin-V/PI staining based flow cytometry analysis (reference value: 4.06%); assay type: functional
[33] = tested on: Huh-7; test: Induction of cell cycle arrest in human Huh-7 cells assessed as accumulation of cells at G2M phase at 60 nM incubated for 30 to 60 mins by RNase/PI staining based flow cytometry analysis (reference value: 8.38%); assay type: functional; conditions: time 30-60 min
[34] = tested on: Huh-7; test: Induction of apoptosis in human Huh-7 cells assessed as early apoptotic cells at 60 nM incubated for 48 hrs by Annexin-V/PI staining based flow cytometry analysis (reference value: 0.56%); assay type: functional

SMILES: CC(=O)O[C@H]1C(=O)[C@@]2(C)[C@H]([C@H](OC(=O)c3ccccc3)[C@]3(O)C[C@H](OC(=O)[C@H](O)[C@@H](NC(=O)c4ccccc4)c4ccccc4)C(C)=C1C3(C)C)[C@]1(OC(C)=O)CO[C@@H]1C[C@@H]2O
inhibition [1]: Active

SMILES: COc1cc(-c2ccnc3ccc(-c4ccncc4)cc23)cc(OC)c1OC
IC50 [2]: > 100 µM
IC50 [3]: 44.5 µM
IC50 [4]: > 100 µM

SMILES: COc1cc(-c2ccnc3ccc(-c4ccc([N+](=O)[O-])cc4)cc23)cc(OC)c1OC
IC50 [2]: 20.3 µM
IC50 [3]: > 100 µM
IC50 [4]: 8.22 µM

SMILES: COc1cc(-c2ccnc3ccc(-c4ccc(Cl)cc4)cc23)cc(OC)c1OC
IC50 [2]: 12.1 µM
IC50 [3]: 16.2 µM
IC50 [4]: 4.56 µM

SMILES: COc1ccc(/C=C\c2cc(OC)c(OC)c(OC)c2)cc1O [COMBRETASTATIN A4]
IC50 at 72 h [5]: 0.32 µM
IC50 [2]: 0.12 µM
IC50 [6]: 2 µM
IC50 [3]: 0.087 µM
IC50 [4]: 0.079 µM
Activity [7]: Dose-Dependent Effect

SMILES: COc1cc(-c2ccnc3ccc(-c4ccccc4C)cc23)cc(OC)c1OC
IC50 [2]: > 100 µM
IC50 [3]: > 100 µM
IC50 [4]: 39.8 µM

SMILES: COc1cc(-c2ccnc3ccc(-c4cccc(C)c4)cc23)cc(OC)c1OC
IC50 [2]: 35 µM
IC50 [3]: 17.9 µM
IC50 [4]: 1.32 µM

SMILES: COc1ccccc1-c1ccc2nccc(-c3cc(OC)c(OC)c(OC)c3)c2c1
IC50 [2]: 17.3 µM
IC50 [3]: > 100 µM
IC50 [4]: 4.69 µM

SMILES: COc1ccc(-c2ccc3nccc(-c4cc(OC)c(OC)c(OC)c4)c3c2)cc1O
IC50 [2]: 25.3 µM
IC50 [3]: 3.62 µM
IC50 [4]: 0.12 µM

More lines, main results first:

IC50 [2]: 10.5 µM
IC50 [3]: 17.1 µM
IC50 [4]: 5.15 µM
SMILES: COc1cc(-c2ccnc3ccc(-c4ccc(F)cc4)cc23)cc(OC)c1OC

IC50 [2]: 9.11 µM
IC50 [3]: 22.1 µM
IC50 [4]: 4.58 µM
SMILES: COc1cc(-c2ccnc3ccc(-c4cccnc4)cc23)cc(OC)c1OC

IC50 [2]: 7.33 µM
IC50 [3]: > 100 µM
IC50 [4]: 3.41 µM
SMILES: COc1cc(-c2ccnc3ccc(-c4ccc(C#N)cc4)cc23)cc(OC)c1OC

IC50 [2]: 0.88 µM
IC50 [3]: 0.96 µM
IC50 [4]: 0.08 µM
SMILES: COc1ccc(-c2ccc3nccc(-c4cc(OC)c(OC)c(OC)c4)c3c2)cc1OC

IC50 [2]: 0.6 µM
IC50 [3]: 1.36 µM
IC50 [4]: 1.15 µM
SMILES: COc1cc(-c2ccnc3ccc(-c4ccc(C)cc4)cc23)cc(OC)c1OC

IC50 [2]: 1.91 µM
IC50 [3]: > 100 µM
IC50 [4]: 0.32 µM
SMILES: COc1cc(-c2ccnc3ccc(-c4ccc(O)cc4)cc23)cc(OC)c1OC

IC50 [2]: 1.36 µM
IC50 [3]: > 100 µM
IC50 [4]: 4.45 µM
SMILES: COc1cc(-c2ccnc3ccc(-c4ccc5ccccc5c4)cc23)cc(OC)c1OC

IC50 [2]: 2.15 µM
IC50 [3]: 1.34 µM
IC50 [4]: 3.67 µM
SMILES: COc1cc(-c2ccnc3ccc(-c4ccc(C)c(C)c4)cc23)cc(OC)c1OC

IC50 [2]: 1.38 µM
IC50 [3]: 0.33 µM
IC50 [4]: 0.04 µM
SMILES: COc1ccc(-c2ccc3nccc(-c4cc(OC)c(OC)c(OC)c4)c3c2)cc1

IC50 [2]: 3.87 µM
IC50 [3]: 3.11 µM
IC50 [4]: 0.42 µM
SMILES: CCOc1ccc(-c2ccc3nccc(-c4cc(OC)c(OC)c(OC)c4)c3c2)cc1

IC50 [2]: 7.92 µM
IC50 [3]: 1.43 µM
IC50 [4]: 1.15 µM
SMILES: COc1cc(-c2ccnc3ccc(-c4ccccc4)cc23)cc(OC)c1OC

inhibition [11]: Dose-Dependent Effect
IC50 [2]: 0.18 µM
IC50 [3]: 0.13 µM
IC50 [4]: 0.03 µM
Activity [7]: Dose-Dependent Effect
Activity [29]: Dose-Dependent Effect
inhibition [30]: Active
SMILES: COc1cc(-c2ccnc3ccc(-c4cccc5[nH]ccc45)cc23)cc(OC)c1OC
Activity [8]: 9.25%
Activity [9]: 4.73%
Activity [10]: 29.3%
Activity [12]: Non-Toxic
Activity [13]: 4.05%
viability at 0.09 µM [14]: 72.5%
Activity [15]: 20.1%
IC50 at 72 h [5]: 5.82 µM
Activity [16]: 37.41%
Activity [17]: 3.39%
viability at 0.06 µM [18]: 91.1%
Activity [19]: 1.58%
IC50 [6]: 0.52 µM
Activity [20]: Active
Activity [21]: 42.03%
Activity [22]: 47.21%
Activity [23]: 48.72%
Activity [24]: Non-Toxic
Activity [25]: 53.2%
viability at 0.12 µM [26]: 63.5%
Activity [27]: 2.45%
Activity [28]: 28.14%
Activity [31]: 24.65%
Activity [32]: 6.27%
Activity [33]: 9.39%
Activity [34]: 1.05%

IC50 [2]: 1.78 µM
IC50 [3]: 2.24 µM
IC50 [4]: 0.27 µM
SMILES: COc1cc(-c2ccnc3ccc(-c4ccsc4)cc23)cc(OC)c1OC

IC50 [2]: 7.83 µM
IC50 [3]: 17.5 µM
IC50 [4]: 3.36 µM
SMILES: COc1cccc(-c2ccc3nccc(-c4cc(OC)c(OC)c(OC)c4)c3c2)c1
